The values below come from ChEMBL document CHEMBL5518178 (Eur J Med Chem, 2024).

One data set deals with HCT-116. As to the kind of experiment: Antiproliferative activity against human HCT-116 cells assessed as inhibition of cell growth incubated for 48 hrs by MTT assay. It is filed as functional, cell-based. As to conditions: HCT-116, 48 h.
In data set [1] the test system is MGC-803. As to the kind of experiment: Antiproliferative activity against human MGC-803 cells assessed as inhibition of cell growth incubated for 48 hrs by MTT assay. It is filed as functional, cell-based. The note with it: MGC-803, 48 h.
The test system of a further data set is KYSE-30. As to the kind of experiment: Antiproliferative activity against human KYSE-30 cells assessed as inhibition of cell growth incubated for 48 hrs by MTT assay. The note with it: KYSE-30, 48 h. The class given is functional, cell-based.
A short description of data set [2]: Toxicity in BALB/c-nude mouse xenografted with human MGC-803 cells assessed as change in body weight at 30 mg/kg/day, ip administered for 18 days. It is filed as organism-based. As to conditions: in vivo, 432 h, time 18 day.
The nature of data set [3]: Toxicity in BALB/c-nude mouse xenografted with human MGC-803 cells assessed as abnormal behaviour at 30 mg/kg/day, ip administered for 18 days. The class given is organism-based. The note with it: in vivo, 432 h, time 18 day.
Data set [4] has as its system MGC-803. Put plainly: Antitumor activity against human MGC-803 cells xenografted in BALB/c-nude mouse assessed as tumor growth inhibition at 30 mg/kg/day, ip administered for 18 days relative to control. The class given is functional. The note with it: MGC-803, 432 h, time 18 day, read-out: TGI.
Data set [5] concerns MGC-803. As to the kind of experiment: Antitumor activity against human MGC-803 cells xenografted in BALB/c-nude mouse assessed as tumor growth rate at 30 mg/kg/day, ip administered for 18 days relative to control. It is filed as functional. The note with it: time 18 day.
In data set [6] the test system is MGC-803. Put plainly: Antitumor activity against human MGC-803 cells xenografted in BALB/c-nude mouse assessed as tumor weight at 30 mg/kg/day, ip administered for 18 days (reference value: 0.656 g). The class given is functional. As to conditions: time 18 day.

Bounds are passed on as bounds.

As to `O=c1cc(N2CCc3ccccc32)c2ccccc2o1`, the values for the concentration for half-maximal inhibition (IC50) with HCT-116, in the data set with MGC-803 [1] and with KYSE-30 were 2.98 µM, 1.29 µM and 2.18 µM, respectively.

Regarding `O=c1cc(N2CCCC2)c2ccccc2o1`, the half-maximal inhibitory concentration (IC50) in the data set on HCT-116, with MGC-803 [1] and in the data set with KYSE-30 was greater than 20 µM each time.

As for `COc1ccc2c(c1)CCCN2C(=O)c1cc2ccccc2oc1=O`, the IC50 came to 5.58 µM in the data set on HCT-116, 4.14 µM in the data set with MGC-803 [1] and 7.19 µM in the data set with KYSE-30.

Turning to `O=c1cc(N2CCCc3cc(O)ccc32)c2ccccc2o1`, the IC50 with HCT-116 came out at 0.91 µM; in the data set with MGC-803 [1], 0.88 µM; in the data set with KYSE-30, 0.87 µM.

For the compound `COc1ccc(/C=C\c2cc(OC)c(OC)c(OC)c2)cc1O` [COMBRETASTATIN A4], the Activity result in data set [2] is recorded as “Non-Toxic”; in data set [3], “Non-Toxic”; with MGC-803 [5], 38%; in the data set with MGC-803 [6], 0.272 g. The inhibition in vivo at 30 mg/kg/day in the data set on MGC-803 [4] turned out to be 58.5%.

On to `COc1ccc(N2CCN(c3cc(=O)oc4ccccc34)CC2)cc1`, for which the IC50 is 18.7 µM in the data set with HCT-116, 18.1 µM in the data set with MGC-803 [1] and greater than 20 µM with KYSE-30.

On to `O=c1cc(N2CCCc3cc(Br)ccc32)c2ccccc2o1`, for which the concentration for half-maximal inhibition (IC50) amounted to 1.47 µM in the data set with HCT-116, 1.19 µM in the data set on MGC-803 [1] and 1.52 µM with KYSE-30.

With `Cc1ccc2c(c1)CCN2c1cc(=O)oc2ccccc12`, the IC50 was 2.28 µM with HCT-116, 2.09 µM with MGC-803 [1] and 1.97 µM in the data set on KYSE-30.

With `Cc1ccc2c(c1)CCCN2c1cc(=O)oc2ccccc12`, the concentration for half-maximal inhibition (IC50) in the data set with HCT-116 was found to be 0.45 µM; with MGC-803 [1], 0.42 µM; in the data set with KYSE-30 it was 0.4 µM.

With `COc1cc2c(c(OC)c1OC)-c1ccc(OC)c(=O)cc1[C@@H](NC(C)=O)CC2` [COLCHICINE], the IC50 in the data set with HCT-116 was 0.055 µM; with MGC-803 [1] it was 0.041 µM; in the data set with KYSE-30, 0.068 µM.

Regarding `COc1ccc2c(c1)NC(=O)CN2c1cc(=O)oc2ccccc12`, the half-maximal inhibitory concentration (IC50) in the data set on HCT-116 was 0.038 µM; in the data set on MGC-803 [1] it was 0.012 µM; with KYSE-30 it was 0.034 µM.

Regarding `O=C(c1cc2ccccc2oc1=O)N1CCCc2cc(Cl)ccc21`, the values for the concentration for half-maximal inhibition (IC50) in the data set with HCT-116, with MGC-803 [1] and in the data set on KYSE-30 were 11.9 µM, 9.99 µM and 13.2 µM, respectively.

For the compound `O=C(c1cc2ccccc2oc1=O)N1CCc2cc(Br)ccc21`, the concentration for half-maximal inhibition (IC50) with HCT-116 was determined as 14.2 µM; with MGC-803 [1], 13.1 µM; in the data set with KYSE-30, 17.1 µM.

Regarding `COc1ccc2c(c1)CCN2C(=O)c1cc2ccccc2oc1=O`, the IC50 in the data set on HCT-116 worked out at 9.44 µM; with MGC-803 [1], 7.41 µM; with KYSE-30 it was 9.08 µM.

As to `CC1CCN(c2cc(=O)oc3ccccc23)CC1`, the half-maximal inhibitory concentration (IC50) with HCT-116, with MGC-803 [1] and in the data set with KYSE-30 was greater than 20 µM throughout.

Consider `CN1CCN(c2cc(=O)oc3ccccc23)CC1`, for which the IC50 in the data set on HCT-116, with MGC-803 [1] and in the data set with KYSE-30 was greater than 20 µM each time.

Regarding `COc1ccc2c(c1)CCN2c1cc(=O)oc2ccccc12`, the IC50 in the data set with HCT-116 turned out to be 0.16 µM; with MGC-803 [1], 0.12 µM; in the data set with KYSE-30, 0.15 µM.

`O=c1cc(N2CCOCC2)c2ccccc2o1`: the half-maximal inhibitory concentration (IC50) in the data set with HCT-116, in the data set with MGC-803 [1] and in the data set on KYSE-30 was greater than 20 µM throughout.

As for `O=c1cc(N2CCCc3ccccc32)c2ccccc2o1`, the half-maximal inhibitory concentration (IC50) in the data set with HCT-116 was 0.73 µM; in the data set with MGC-803 [1], 0.67 µM; with KYSE-30, 0.68 µM.

In the case of `COC1CCN(c2cc(=O)oc3ccccc23)CC1`, the half-maximal inhibitory concentration (IC50) with HCT-116, with MGC-803 [1] and with KYSE-30 was greater than 20 µM in each case.
